Laboratory results taken from US10842762B2, “Method of treating cardiovascular events using colchicine concurrently with an antiplatelet agent” (Murray and Poole Enterprises, LTD., priority 2012, dated 2020).

Columns and labels:
[1] = test system: patients with a first episode of recurrent pericarditis; settings: at 18 months; conventional treatment with aspirin plus colchicine (1.0-2.0 mg first day, then 0.5-1.0 mg/d for 6 months); vs 50.6% with conventional treatment; cited from earlier work
[2] = test system: patients with objectively diagnosed and clinically stable coronary disease; assay: LoDoCo Trial: prospective randomized observer blinded end-point trial of colchicine 0.5 mg/day added to standard secondary prevention therapies
Protocol: To assess the therapeutic effects of an immediate release formulation in patients with cardiovascular disease, a prospective randomized observer blinded end-point trial was conducted to determine whether adding 0.5 mg/day of colchicine to standard secondary prevention therapies including aspirin and high dose statins reduces the risk of cardiovascular events in patients with objectively diagnosed and clinically stable coronary disease.
Eligible consenting patients with established coronary disease presenting for routine clinical review were randomized to receive colchicine 0.5 mg/day or no colchicine without any other change to their medical therapy. All outcomes were evaluated by an experienced adjudicator blinded to the treatment allocation.
It was planned to recruit a study population that would include 500 patients planned (532 patients randomized as 32 dropped out early), 250 randomized to the control group and 250 patients randomized to treatment who were tolerant of colchicine for at least 4 weeks after the date of their randomization. Patients were eligible for inclusion if they met each of the following criteria: 1) angiographically proven coronary disease; 2) aged 35 to 85 years; 3) clinically stable for at least 6 months, 4) no major competing co-morbidities or contra-indication to colchicine therapy, 5) considered to be compliant with therapy and attending routine cardiology follow up appointments, and 6) willing to be consented and randomized into the study. Patients with a history of bypass surgery were only eligible if they had undergone bypass surgery more than 10 years before, or had angiographic evidence of graft failure or had undergone stenting since their bypass surgery. All patients signed informed consent before randomization.
The randomization sequence was computer generated, kept concealed from the investigators at all times and was managed by a research assistant who had no involvement in the evaluation or management of study patients. […] Despite electing to use the lowest dose of colchicine available, it was anticipated that a number of patients would withdraw from therapy early after randomization due to gastrointestinal side effects. In order to ensure that the requisite number of patients in the treatment arm were actually tolerant of treatment, the protocol allowed for the research assistant to assign a newly recruited patient to treatment if a patient discontinued colchicine due to side effects in the first month. Patients who were intolerant to therapy remained in the study, and were followed in the usual manner and included in the primary intention to treat analysis.
The drug was dispensed by their usual chemist, and if requested, patients were reimbursed for the cost of these scripts. All other treatments were continued as usual.
Patient compliance with treatment and outcome data were collected at routine follow up visits and at the time of any unplanned hospital admission. An acute coronary syndrome (ACS) was defined as either (a) Acute Myocardial Infarction (AMI), as evidenced by acute ischemic chest pain associated with a rise in serum troponin above the upper limit of normal or (b) Unstable Angina (UA), as evidenced by a recent acceleration of the patient's angina unassociated with a rise in serum troponin but associated with angiographic evidence of a change in the patient's coronary anatomy. […] The ACS was characterized as being stent-related if there was evidence of significant in-stent stenosis or acute stent thrombosis. Out of Hospital Cardiac Arrest was defined as either a sudden death as evidenced on the patient's death certificate, or a non-fatal out of hospital cardiac arrest, defined as a recovery from sudden collapse associated with documented asystole, ventricular tachycardia or ventricular fibrillation.

[3] = No treatment (no antithrombotic), n=1
[4] = Treated with Aspirin + clopidogrel + warfarin, n=2
[5] = Treated with Aspirin + clopidogrel, n=33
[6] = Treated with Aspirin + warfarin, n=6
[7] = Treated with Aspirin alone, n=173
[8] = Treated with Clopidogrel alone or warfarin alone (no aspirin), n=28
[9] = Treated with Clopidogrel alone, n=12
[10] = Treated with Warfarin alone, n=16
[11] = Treated with at least aspirin, n=214
[12] = Treated with at least one antiplatelet drug (aspirin, clopidogrel or combinations), n=226
[13] = Treated with at least one antithrombotic drug (aspirin, clopidogrel or warfarin or combinations), n=242
[14] = of 282 randomized to treatment, colchicine 0.5 mg/day

COc1cc2c(c(OC)c1OC)-c1ccc(OC)c(=O)cc1[C@@H](NC(C)=O)CC2 [colchicine, N[5,6,7,9-tetrahydro-1,2,3,10-tetratmethoxy 9-oxobenzo[a]heptalen-7-yl],(S)-acetamide]
recurrence rate (actuarial rate) [1]: 24.0% | stent related ACS with evidence of acute stent thrombosis, patients ([2]; 2 in each group): 2 | stent related ACS with evidence of significant in-stent stenosis, patients ([2]; 2 in each group): 2 | Primary Outcome, number of patients [2, 3]: 0 | Primary Outcome, percent [2, 3]: (0%) | Primary Outcome, number of patients ([2]; Total, colchicine group n=243): 11 | Primary Outcome, percent ([2]; Total, colchicine group n=243): (4.5%) | Primary Outcome, number of patients [2, 4]: 0 | Primary Outcome, percent [2, 4]: (0%) | Primary Outcome, number of patients [2, 5]: 3 | Primary Outcome, percent [2, 5]: (9%) | Primary Outcome, number of patients [2, 6]: 0 | Primary Outcome, percent [2, 6]: (0%) | Primary Outcome, number of patients [2, 7]: 7 | Primary Outcome, percent [2, 7]: (4%) | Primary Outcome, number of patients [2, 8]: 1 | Primary Outcome, percent [2, 8]: (3.45%) | Primary Outcome, number of patients [2, 9]: 1 | Primary Outcome, percent [2, 9]: (8.3%) | Primary Outcome, number of patients [2, 10]: 0 | Primary Outcome, percent [2, 10]: (0%) | Primary Outcome, number of patients [2, 11]: 10 | Primary Outcome, percent [2, 11]: (4.67%) | Primary Outcome, number of patients [2, 12]: 11 | Primary Outcome, percent [2, 12]: (4.9%) | Primary Outcome, number of patients [2, 13]: 11 | Primary Outcome, percent [2, 13]: 4.5% | Primary Outcome, percent ([2]; Treated with at least one antithrombotic drug (aspirin, clopidogrel or warfarin or combinations), n=242, listed as Colchicine): (4.5%) | patients who died of non-cardiac causes ([2]; colchicine group, all deaths): 4 patients | patients who died ([2]; colchicine group, control group ten): 4 patients | AMI unrelated to stent disease, hazard ratio ([2]; colchicine vs control, 95% CI 0.08-0.76, p=0.014): 0.25 | UA unrelated to stent disease, hazard ratio ([2]; colchicine vs control, 95% CI 0.10-0.75, p=0.011): 0.27 | ACS unrelated to stent disease, hazard ratio ([2]; colchicine vs control, 95% CI 0.12-0.55, p<0.001): 0.26 | ACS, hazard ratio ([2]; colchicine vs control, 95% CI 0.18-0.63, p<0.001): 0.33 | primary outcome, number needed to treat ([2]; intention-to-treat, colchicine vs control): 11 | primary outcome, hazard ratio ([2]; intention-to-treat, colchicine vs control, 95% CI 0.18-0.59, p<0.001): 0.33 | primary outcome, percent of patients ([2]; intention-to-treat, colchicine 0.5 mg/day, median follow up 36 months, control 16%): 5.3% | primary outcome (ACS, out of hospital cardiac arrest or non-cardio-embolic ischemic stroke), patients with event / patients assigned ([2]; intention-to-treat, colchicine 0.5 mg/day, median follow up 36 months, control 40/250): 15/282 | ACS unrelated to stent disease associated with an AMI, percent ([2]; intention-to-treat, control 5.6%): 1.4% | ACS unrelated to stent disease, UA, percent ([2]; intention-to-treat, control 6.4%): 1.8% | ACS unrelated to stent disease, percent ([2]; intention-to-treat, control 12%): 3.2% | patients presenting with an ACS, percent ([2]; intention-to-treat, control 13.4%): 4.6% | ACS unrelated to stent disease associated with an AMI, patients / patients assigned ([2]; intention-to-treat, control 14/250): 4/282 | ACS unrelated to stent disease, UA, patients / patients assigned ([2]; intention-to-treat, control 16/250): 5/282 | ACS unrelated to stent disease, patients / patients assigned ([2]; intention-to-treat, control 30/250): 9/282 | patients presenting with an ACS / patients assigned ([2]; intention-to-treat, control 34/250): 13/282 | early intolerance due to gastrointestinal side effects, patients [2, 14]: 32 | early intolerance due to gastrointestinal side effects, percent [2, 14]: 11% | events (primary outcome), hazard ratio ([2]; on-treatment analysis vs control, 95% CI 0.15-0.56, p<0.001): 0.29 | events (primary outcome), percent ([2]; on-treatment analysis: compliant and tolerant beyond the first month, control 16%): 4.5% | events (primary outcome), patients / patients compliant and tolerant ([2]; on-treatment analysis: compliant and tolerant to therapy beyond the first month, control 40/250): 11/243 | out of hospital cardiac arrest and non-cardio-embolic ischemic stroke ([2]; treatment group vs control, infrequent events): also reduced
